From publication PMC6930223 (Scientific Reports, 2019)

Key:
[1] = tested on: hERG1a; assay: Immunofluorescence surface expression (CTCF/area) in HEK293-hERG1a/1b cells; assay type: cell-based, human; conditions: 10 µM, 24 h, control 0.1% (v/v) DMSO
Procedure: (§1) Briefly, cells were first seeded onto 24 mm × 24 mm pre-coated glass cover slips (Leica Microsystems, Germany) in a 6 well plate containing 10% (v/v) FBS-complete DMEM medium. The sterile glass cover slips (Leica Microsystems, Germany) were coated with HistoGrip (Invitrogen, USA) before use. Cells were first cultured in fresh medium containing 0.5% (v/v) FBS for 4 h before replenishing with medium containing arsenic trioxide (positive control) or mitragynine for 24 h. Medium containing 0.1% (v/v) DMSO was used as control. After incubation, the monolayer cells were fixed with 4% (w/v) paraformaldehyde and incubated for 15 min at room temperature, followed by rinsing with PBST solution and incubating with 0.1% (v/v) Triton X-100 solution for 2 min. Subsequently blocking was performed with 3% (w/v) BSA for 1 h and followed by incubation with primary antibodies against hERG1a (1:1000) and hERG1b (1:125) at 4 °C overnight. Immunolabelling was carried out using anti-rabbit IgG F(ab’)2 Alexa Fluor® 488 molecular probes (Cell Signaling, USA) diluted at 1:250 in 3% (w/v) BSA at room temperature. Finally, the cover slips were mounted using Fluoroshield™ with DAPI (Sigma-Aldrich, USA) and viewed under 600x magnification using Nikon C2 confocal microscope (Nikon, USA). The excitation/emission wavelengths for Alexa Fluor 488 and DAPI were 488/512 nm and 405/488 nm respectively. The laser imaging settings such as laser power, gain and amplification factor were set to be similar for all samples. […] For each test sample, at least 20 cells were randomly selected from the 15 spots for quantitation. The green fluorescence intensity was quantified using ImageJ software (http://imagej.nih.gov/ij/)[72],[73]. Intensity was represented as the “corrected total cell fluorescence” (CTCF) per area using the equation “CTCF/area = [Integrated density - (Area of selected cell × Mean fluorescence of background readings)]/Area of selected cell”. Relative protein expression of hERG1a and hERG1b was determined by dividing the mean CTCF/area of treated cells to that of the untreated control. […]

[2] = tested on: hERG1b; assay: as above; assay type: cell-based, human; conditions: 24 h
Procedure: as §1

## mitragynine
[1]
  hERG1a fluorescence intensity vs control: significant reduction to approximately half of the intensity
[2]; 1 µM
  hERG1b fluorescence intensity: unaffected
[2]; 10 μM
  hERG1b fluorescence intensity: unaffected
